Key:
[1] = test system: IPOHE (Morningglory, Ivyleaf); assay: Preemergence herbicidal evaluation; format: in vivo, Ipomoea hederacea; details: rated 4-5 weeks after treatment
How it was run: (§1)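 Visual 0-9 rating vs control (stand, vigor, malformation, size, chlorosis, overall appearance), scored 4-5 wk after spraying. Seeded soil cups were treated preemergence with compound in aqueous acetone, ~0.0156-0.500 kg/ha equivalent.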

ABUTH (Velvetleaf) = assay: Postemergence herbicidal evaluation; format: in vivo, Abutilon theophrasti; details: postemergence
How it was run: (§2)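 Each compound, dispersed in an acetone/water mix (50/50) carrying 0.5% TWEEN 20, is nozzle-sprayed at 40 psi on approximately two-week-old seedlings at about 0.0156–0.500 kg/ha. Plants are assessed 4–5 weeks afterward on a 0–9 scale relative to control; duplicate tests are averaged.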

AMBEL (Ragweed, Common) = assay: Postemergence herbicidal evaluation; format: in vivo, Ambrosia artemisifolia; details: postemergence
How it was run: as §2

ECHCG (Barnyardgrass) [2] = assay: Postemergence herbicidal evaluation; format: in vivo, Echinochloa crus-galli; details: postemergence
How it was run: as §2

SETVI (Foxtail, Green) = assay: Postemergence herbicidal evaluation; format: in vivo, Setaria viridis; details: postemergence
How it was run: as §2

[3] = test system: CHEAL (Lambsquarters, Common); assay: Preemergence herbicidal evaluation; format: in vivo, Chenopodium album; details: rated 4-5 weeks after treatment
How it was run: as §1

[4] = test system: GLXMAW (Soybean, Williams); assay: Postemergence herbicidal evaluation; format: in vivo, Glycine max, (L.) Merr. cv Williams; details: postemergence
How it was run: as §2

[5] = test system: IPOHE (Morningglory, Ivyleaf); assay: Postemergence herbicidal evaluation; format: in vivo, Ipomoea hederacea; details: postemergence
How it was run: as §2

[6] = test system: TRZAWR (Wheat, Winter, cv Riband); assay: Postemergence herbicidal evaluation; format: in vivo, Triticum aestivum; details: postemergence
How it was run: as §2

ECHCG (Barnyardgrass) [7] = assay: Preemergence herbicidal evaluation; format: in vivo, Echinochloa crus-galli; details: rated 4-5 weeks after treatment
How it was run: as §1

CASOB (Sicklepod) = assay: Preemergence herbicidal evaluation; format: in vivo, Cassia obtusifolia; details: rated 4-5 weeks after treatment
How it was run: as §1

ZEAMX (Corn, Field) = assay: Preemergence herbicidal evaluation; format: in vivo, Zea mays; details: rated 4-5 weeks after treatment
How it was run: as §1

GALAP (Galium) = assay: Preemergence herbicidal evaluation; format: in vivo, Galium aparine; details: rated 4-5 weeks after treatment
How it was run: as §1

[8] = test system: ECHORC (Watergrass (Calif.)); assay: Postemergence weed control under flooded paddy conditions; format: in vivo, Echinochloa oryzoides; details: postemergence weeds, 3-4 weeks after treatment
How it was run: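 Flood-water application, about 0.0313–0.500 kg/ha a.i. in aqueous/acetone 50/50 v/v; water depth 1.5–3 cm throughout. Weeds 3–5 cm, rice 1.5–2.5 leaf. Greenhouse; 0–9 visual rating vs control at 3–4 wk.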

Question: Which “IPOHE preemergence herbicidal rating” value ([1]; rate 0.0156 kg/ha) does the source give for `CCOC(=O)CN1C(=O)C(F)SC1=Nc1cc(-n2c(=O)cc(C(F)(F)F)n(C)c2=O)c(F)cc1Cl` (centres unmarked) [Compound 11, Ethyl 2-{{2-chloro-5-[3,6-dihydro-3-methyl-2,6-dioxo-4-(trifluoromethyl)-1(2H)-pyrimidinyl]-4-fluorophenyl}imino}-5-fluoro-4-oxo-3-thiazolidineacetate] here?
Answer: Its value is 2.0.

Question: What about the “IPOHE preemergence herbicidal rating” value ([1]; rate 0.0313 kg/ha) of the same compound?
Answer: The value was 8.0.

Question: And the “IPOHE preemergence herbicidal rating” value ([1]; rate 0.0625 kg/ha)?
Answer: Its value is 8.0.

Question: And the “IPOHE preemergence herbicidal rating” value ([1]; rate 0.1250 kg/ha)?
Answer: The value was 9.0.

Question: What about the “IPOHE preemergence herbicidal rating” value ([1]; rate 0.2500 kg/ha) of the same compound?
Answer: The value was 9.0.

Question: What about the ABUTH herbicidal rating (ABUTH (Velvetleaf); rate 0.0156 kg/ha) of the same compound?
Answer: The ABUTH herbicidal rating was 9.0.

Question: What about the ABUTH herbicidal rating (ABUTH (Velvetleaf); rate 0.0313 kg/ha) of the same compound?
Answer: The ABUTH herbicidal rating was 9.0.

Question: And the ABUTH herbicidal rating (ABUTH (Velvetleaf); rate 0.0625 kg/ha)?
Answer: Its ABUTH herbicidal rating is 9.0.

Question: And the ABUTH herbicidal rating (ABUTH (Velvetleaf); rate 0.1250 kg/ha)?
Answer: Its ABUTH herbicidal rating is 9.0.

Question: What about the AMBEL herbicidal rating (AMBEL (Ragweed, Common); rate 0.0156 kg/ha) of the same compound?
Answer: Its AMBEL herbicidal rating is 1.0.

Question: And the AMBEL herbicidal rating (AMBEL (Ragweed, Common); rate 0.0313 kg/ha)?
Answer: The AMBEL herbicidal rating was 9.0.

Question: And the AMBEL herbicidal rating (AMBEL (Ragweed, Common); rate 0.0625 kg/ha)?
Answer: Its AMBEL herbicidal rating is 9.0.

Question: What about the AMBEL herbicidal rating (AMBEL (Ragweed, Common); rate 0.1250 kg/ha) of the same compound?
Answer: The AMBEL herbicidal rating was 9.0.

Question: And the ECHCG herbicidal rating (ECHCG (Barnyardgrass) [2]; rate 0.0156 kg/ha)?
Answer: The ECHCG herbicidal rating was 0.0.

Question: And the ECHCG herbicidal rating (ECHCG (Barnyardgrass) [2]; rate 0.0313 kg/ha)?
Answer: The ECHCG herbicidal rating was 0.0.

Question: What about the ECHCG herbicidal rating (ECHCG (Barnyardgrass) [2]; rate 0.0625 kg/ha) of the same compound?
Answer: Its ECHCG herbicidal rating is 6.0.

Question: And the ECHCG herbicidal rating (ECHCG (Barnyardgrass) [2]; rate 0.1250 kg/ha)?
Answer: The ECHCG herbicidal rating was 7.0.

Question: What about the SETVI herbicidal rating (SETVI (Foxtail, Green); rate 0.0156 kg/ha) of the same compound?
Answer: Its SETVI herbicidal rating is 0.0.

Question: What about the SETVI herbicidal rating (SETVI (Foxtail, Green); rate 0.0313 kg/ha) of the same compound?
Answer: Its SETVI herbicidal rating is 0.0.

Question: And the SETVI herbicidal rating (SETVI (Foxtail, Green); rate 0.0625 kg/ha)?
Answer: Its SETVI herbicidal rating is 6.0.

Question: What about the SETVI herbicidal rating (SETVI (Foxtail, Green); rate 0.1250 kg/ha) of the same compound?
Answer: Its SETVI herbicidal rating is 9.0.

Question: And the “CHEAL preemergence herbicidal rating” value ([3]; rate 0.0156 kg/ha)?
Answer: The value was 7.5.

Question: And the “CHEAL preemergence herbicidal rating” value ([3]; rate 0.0313 kg/ha)?
Answer: Its value is 9.0.

Question: What about the “CHEAL preemergence herbicidal rating” value ([3]; rate 0.0625 kg/ha) of the same compound?
Answer: Its value is 9.0.

Question: What about the “CHEAL preemergence herbicidal rating” value ([3]; rate 0.1250 kg/ha) of the same compound?
Answer: Its value is 9.0.

Question: And the “CHEAL preemergence herbicidal rating” value ([3]; rate 0.2500 kg/ha)?
Answer: The value was 9.0.

Question: And the GLXMAW herbicidal rating ([4]; rate 0.0156 kg/ha)?
Answer: Its GLXMAW herbicidal rating is 5.0.

Question: What about the GLXMAW herbicidal rating ([4]; rate 0.0313 kg/ha) of the same compound?
Answer: Its GLXMAW herbicidal rating is 7.5.

Question: And the GLXMAW herbicidal rating ([4]; rate 0.0625 kg/ha)?
Answer: The GLXMAW herbicidal rating was 9.0.

Question: What about the GLXMAW herbicidal rating ([4]; rate 0.1250 kg/ha) of the same compound?
Answer: Its GLXMAW herbicidal rating is 9.0.

Question: What about the IPOHE herbicidal rating ([5]; rate 0.0156 kg/ha) of the same compound?
Answer: The IPOHE herbicidal rating was 9.0.

Question: And the IPOHE herbicidal rating ([5]; rate 0.0313 kg/ha)?
Answer: Its IPOHE herbicidal rating is 9.0.

Question: And the IPOHE herbicidal rating ([5]; rate 0.0625 kg/ha)?
Answer: Its IPOHE herbicidal rating is 9.0.

Question: And the IPOHE herbicidal rating ([5]; rate 0.1250 kg/ha)?
Answer: Its IPOHE herbicidal rating is 9.0.

Question: And the TRZAWR herbicidal rating ([6]; rate 0.0156 kg/ha)?
Answer: Its TRZAWR herbicidal rating is 4.5.

Question: And the TRZAWR herbicidal rating ([6]; rate 0.0313 kg/ha)?
Answer: Its TRZAWR herbicidal rating is 4.5.

Question: What about the TRZAWR herbicidal rating ([6]; rate 0.0625 kg/ha) of the same compound?
Answer: The TRZAWR herbicidal rating was 5.5.

Question: What about the TRZAWR herbicidal rating ([6]; rate 0.1250 kg/ha) of the same compound?
Answer: Its TRZAWR herbicidal rating is 6.0.

Question: And the “ECHCG preemergence herbicidal rating” value (ECHCG (Barnyardgrass) [7]; rate 0.0156 kg/ha)?
Answer: The value was 0.0.

Question: And the “ECHCG preemergence herbicidal rating” value (ECHCG (Barnyardgrass) [7]; rate 0.0313 kg/ha)?
Answer: Its value is 0.0.

Question: What about the “ECHCG preemergence herbicidal rating” value (ECHCG (Barnyardgrass) [7]; rate 0.0625 kg/ha) of the same compound?
Answer: Its value is 0.0.

Question: And the “ECHCG preemergence herbicidal rating” value (ECHCG (Barnyardgrass) [7]; rate 0.1250 kg/ha)?
Answer: The value was 3.5.

Question: What about the “ECHCG preemergence herbicidal rating” value (ECHCG (Barnyardgrass) [7]; rate 0.2500 kg/ha) of the same compound?
Answer: Its value is 7.0.

Question: What about the “CASOB preemergence herbicidal rating” value (CASOB (Sicklepod); rate 0.0156 kg/ha) of the same compound?
Answer: The value was 0.0.

Question: And the “CASOB preemergence herbicidal rating” value (CASOB (Sicklepod); rate 0.0313 kg/ha)?
Answer: The value was 0.0.

Question: And the “CASOB preemergence herbicidal rating” value (CASOB (Sicklepod); rate 0.0625 kg/ha)?
Answer: Its value is 0.0.

Question: What about the “CASOB preemergence herbicidal rating” value (CASOB (Sicklepod); rate 0.1250 kg/ha) of the same compound?
Answer: The value was 0.0.

Question: What about the “CASOB preemergence herbicidal rating” value (CASOB (Sicklepod); rate 0.2500 kg/ha) of the same compound?
Answer: The value was 5.5.

Question: And the “ZEAMX preemergence herbicidal rating” value (ZEAMX (Corn, Field); rate 0.0156 kg/ha)?
Answer: Its value is 0.0.

Question: And the “ZEAMX preemergence herbicidal rating” value (ZEAMX (Corn, Field); rate 0.0313 kg/ha)?
Answer: Its value is 0.5.

Question: And the “ZEAMX preemergence herbicidal rating” value (ZEAMX (Corn, Field); rate 0.0625 kg/ha)?
Answer: The value was 3.5.

Question: And the “ZEAMX preemergence herbicidal rating” value (ZEAMX (Corn, Field); rate 0.1250 kg/ha)?
Answer: Its value is 4.5.

Question: What about the “ZEAMX preemergence herbicidal rating” value (ZEAMX (Corn, Field); rate 0.2500 kg/ha) of the same compound?
Answer: The value was 5.5.

Question: What about the “GALAP preemergence herbicidal rating” value (GALAP (Galium); rate 0.0156 kg/ha) of the same compound?
Answer: Its value is 0.0.

Question: What about the “GALAP preemergence herbicidal rating” value (GALAP (Galium); rate 0.0313 kg/ha) of the same compound?
Answer: The value was 0.0.

Question: And the “GALAP preemergence herbicidal rating” value (GALAP (Galium); rate 0.0625 kg/ha)?
Answer: The value was 0.0.

Question: And the “GALAP preemergence herbicidal rating” value (GALAP (Galium); rate 0.1250 kg/ha)?
Answer: The value was 0.0.

Question: What about the “GALAP preemergence herbicidal rating” value (GALAP (Galium); rate 0.2500 kg/ha) of the same compound?
Answer: Its value is 9.0.

Question: And the “Herbicidal rating ECHORC” value ([8]; rate 0.0313 kg/ha)?
Answer: The value was 1.0.

Question: What about the “Herbicidal rating ECHORC” value ([8]; rate 0.0625 kg/ha) of the same compound?
Answer: The value was 2.0.

Question: What about the “Herbicidal rating ECHORC” value ([8]; rate 0.1250 kg/ha) of the same compound?
Answer: The value was 2.0.

Question: And the “Herbicidal rating ECHORC” value ([8]; rate 0.2500 kg/ha)?
Answer: The value was 3.0.

Source: patent publication US20020137929A1, “1 - (3-heterocyclylphenyl) isothiourea, -isourea, -guanidine and -amidine herbicidal agents” (Intellectual Property Department, BASF Aktiengesellschaft, priority 1998, published 2002)
